Reference: US20250332170A1, “VANDETANIB REDUCES INFLAMMATORY CYTOKINES AND AMELIORATES COVID-19” (Collaborations Pharmaceuticals, Inc., priority 2021, published 2025)
Entries after “also recorded” stand apart in the source; their conditions may differ.

System: Pseudo SARS-CoV-2 D614G
Assay type: cell-based

SMILES	SARS-CoV-2 Spike protein-mediated entry, pseudovirus assay
CN1CCN(c2ccc(C(=O)Nc3n[nH]c4ccc(Cc5cc(F)cc(F)c5)cc34)c(NC3CCOCC3)c2)CC1 [Entrectinib]	no significant activity
COc1cc2c(Nc3ccc(Br)cc3F)ncnc2cc1OCC1CCN(C)CC1 [Vandetanib]	active; also recorded: decreased viral entry
